Results taken from patent US20240342292A1, “Compounds for the Degradation of EGFR Kinase” (BeiGene Switzerland GmbH, priority 2021, published 2024).

What was measured:
[1] = tested on: Del19/T790M/C797S EGFR; experiment: EGFR degradation HTRF assay in H1975-clone #28 (DTC) cells; format: cell-based; settings: H1975 # 28 DTC (Del19/T790M/C797S), 16h treatment; for DC50: HTRF; for Dmax (%): maximum percentage of degradation
Method in brief: (§1)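 H1975 clones stably overexpressing mutant EGFR by lentivirus, with endogenous EGFR knocked out by sgRNA and homozygosity confirmed by sequencing, were treated 16 h at 37 °C with compounds in 0.2% DMSO medium, 8 doses from 10 uM in 5-fold dilution. Lysates were read by HTRF (665/620 nm); DC50 came from a four-parameter fit.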

[2] = target: T1, L858R/T790M/C797S EGFR (Homo sapiens, UniProt P00533, C797S/L858R/T790M); experiment: EGFR degradation HTRF assay in H1975-clone #25 (LTC) cells; format: cell-based; settings: 16h treatment; for DC50: H1975 # 25-LTC (L858R/T790M/C797S), HTRF; for Dmax: NCI-H1975, H1975 # 25-LTC (L858R/T790M/C797S), maximum percentage of degradation
T1 construct: expressed in transfected cells; host or cells: H1975 clone #25 (lentiviral over-expression, endogenous EGFR knocked out by sgRNA)
T1 sequence (P00533 25-1210 T790M/C797S/L858R): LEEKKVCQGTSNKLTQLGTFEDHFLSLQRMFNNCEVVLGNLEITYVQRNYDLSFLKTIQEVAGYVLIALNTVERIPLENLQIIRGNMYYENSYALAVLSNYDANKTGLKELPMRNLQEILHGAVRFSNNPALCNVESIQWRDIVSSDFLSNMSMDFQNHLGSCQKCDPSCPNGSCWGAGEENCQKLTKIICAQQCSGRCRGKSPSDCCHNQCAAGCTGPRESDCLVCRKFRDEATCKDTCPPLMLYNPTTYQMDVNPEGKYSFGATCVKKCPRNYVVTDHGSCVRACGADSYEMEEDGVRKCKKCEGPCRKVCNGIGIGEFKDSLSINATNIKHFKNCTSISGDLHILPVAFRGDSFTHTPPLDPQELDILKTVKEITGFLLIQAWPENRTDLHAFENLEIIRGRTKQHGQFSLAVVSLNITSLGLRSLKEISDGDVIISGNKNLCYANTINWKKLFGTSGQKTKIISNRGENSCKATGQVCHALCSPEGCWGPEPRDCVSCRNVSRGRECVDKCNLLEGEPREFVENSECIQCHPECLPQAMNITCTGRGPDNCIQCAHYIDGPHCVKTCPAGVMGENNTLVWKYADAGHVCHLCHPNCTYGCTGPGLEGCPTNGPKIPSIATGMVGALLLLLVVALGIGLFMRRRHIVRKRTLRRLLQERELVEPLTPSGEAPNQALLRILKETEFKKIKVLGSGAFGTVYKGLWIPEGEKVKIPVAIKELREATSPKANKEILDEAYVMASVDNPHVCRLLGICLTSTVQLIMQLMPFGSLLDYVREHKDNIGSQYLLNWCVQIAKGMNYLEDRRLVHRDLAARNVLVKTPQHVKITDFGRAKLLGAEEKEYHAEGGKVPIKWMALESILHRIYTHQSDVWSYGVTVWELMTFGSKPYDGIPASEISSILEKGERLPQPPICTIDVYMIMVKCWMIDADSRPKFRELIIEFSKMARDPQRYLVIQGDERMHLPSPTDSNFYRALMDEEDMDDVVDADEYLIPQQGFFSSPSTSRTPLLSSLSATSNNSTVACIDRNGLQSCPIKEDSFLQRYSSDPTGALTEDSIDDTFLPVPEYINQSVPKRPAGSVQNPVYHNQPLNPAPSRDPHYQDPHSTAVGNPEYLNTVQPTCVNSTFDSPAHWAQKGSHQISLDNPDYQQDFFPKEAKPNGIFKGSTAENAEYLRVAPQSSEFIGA
Method in brief: as §1

Row | DC50 [1] [nM] | DC50 [2] [nM] | Dmax [2] [%] | Compound | Dmax (%) [1] [%]
1 | 0.42 | 0.546 | 88.4 | Cc1cc2cc(n1)-c1cnn(C)c1OCCCC1(CC1)CN1/C(=N/C2=O)Nc2ccc(C(=O)N(C)C3CCN(CCc4cc(F)c([C@H]5CCC(=O)NC5=O)c(F)c4)CC3)cc21 [Example 236, (R,E)-N-(1-(4-(2,6-dioxopiperidin-3-yl)-3,5-difluorophenethyl)piperidin-4-yl)-N,1′,6′-trimethyl-3′-oxospiro[cyclopropane-1,7′-11-oxa-4-aza-5(2,1)-benzo[d]imidazola-2(2,4)-pyridina-1(4,5)-pyrazolacycloundecaphane]-6′-carboxamide] | 87.56
2 | 0.565 | 0.602 | 93.2 | Cc1cc2cc(n1)-c1cnn(C)c1OCCCCCN1/C(=N/C2=O)Nc2ccc(C(=O)N(C)C3CCN(CCc4cc(F)c([C@H]5CCC(=O)NC5=O)c(F)c4)CC3)cc21 [Example 238, (R,E)-N-(1-(4-(2,6-dioxopiperidin-3-yl)-3,5-difluorophenethyl)piperidin-4-yl)-N,1^1,2^6-trimethyl-3-oxo-5^2,5^3-dihydro-1^1H,5^1H-11-oxa-4-aza-5(2,1)-benzo[d]imidazola-2(2,4)-pyridina-1(4,5)-pyrazolacycloundecaphane-5^6-carboxamide] | 83.62
3 | 2.9 | 0.677 | 92.1 | Cc1cc2cc(n1)-c1cnn(C)c1OCCC[C@@H](C)CN1/C(=N/C2=O)Nc2ccc(C(=O)N(C)[C@@H]3CCN(CCc4cc(F)c([C@H]5CCC(=O)NC5=O)c(F)c4)C[C@H]3O)cc21 [Example 243, (R,E)-N-((3R,4R)-1-(4-((R)-2,6-dioxopiperidin-3-yl)-3,5-difluorophenethyl)-3-hydroxypiperidin-4-yl)-N,1^1,2^6,7-tetramethyl-3-oxo-5^2,5^3-dihydro-1^1H,5^1H-11-oxa-4-aza-5(2,1)-benzo[d]imidazola-2(2,4) -pyridina-1(4,5)-pyrazolacycloundecaphane-5^6-carboxamide] | 86.39
4 | 0.59 | 1.06 | 88.9 | Cc1cc2cc(n1)-c1cnn(C)c1OCCC[C@@H](C)CN1/C(=N/C2=O)Nc2ccc(C(=O)N(C)[C@@H]3CCN(CCc4cc(F)c([C@H]5CCC(=O)NC5=O)c(F)c4)CC3(F)F)cc21 [Example 250, (R,E)-N—((R)-1-(4-((R)-2,6-dioxopiperidin-3-yl)-3,5-difluorophenethyl)-3,3-difluoropiperidin-4-yl)-N,1^1,2^6,7-tetramethyl-3-oxo-5^2,5^3-dihydro-1^1H,5^1H-11-oxa-4-aza-5(2,1)-benzo[d]imidazola-2(2,4)-pyridina-1(4,5)-pyrazolacycloundecaphane-5^6-carboxamide] | 82.13

More lines, now with the values behind:

Row | Compound | DC50 [1] [nM] | DC50 [2] [nM] | Dmax [2] [%] | Dmax (%) [1] [%]
5 | Cc1cc2cc(n1)-c1cnn(C)c1OCCC1CC1CN1/C(=N/C2=O)Nc2ccc(C(=O)N(C)C3CCN(CCc4cc(F)c([C@H]5CCC(=O)NC5=O)c(F)c4)CC3)cc21 (stereo partly drawn) [Example 234, (E)-N-(1-(4-((R)-2,6-dioxopiperidin-3-yl)-3,5-difluorophenethyl)piperidin-4-yl)-N,1^1,2^6-trimethyl-3-oxo-5^2,5^3-dihydro-1^1H,5^1H-10-oxa-4-aza-5(2,1)-benzo[d]imidazola-2(2,4)-pyridina-1(4,5)-pyrazola-7(1,2)-cyclopropanacyclodecaphane-5^6-carboxamide] | 0.637 | 1.09 | 90.1 | 85.75
6 | Cc1cc2cc(n1)-c1cnn(C)c1OCCC[C@@H](C)CN1/C(=N/C2=O)Nc2ccc(C(=O)N(C3CC3)C3CCN(CCc4cc(F)c([C@H]5CCC(=O)NC5=O)c(F)c4)CC3)cc21 [Example 239, (R,E)-N-cyclopropyl-N-(1-(4-((R)-2,6-dioxopiperidin-3-yl)-3,5-difluorophenethyl)piperidin-4-yl)-1^1, 2^6,7-trimethyl-3-oxo-5^2,5^3-dihydro-1^1H,5^1H-11-oxa-4-aza-5(2,1)-benzo[d]imidazola-2(2,4)-pyridina-1(4,5)-pyrazolacycloundecaphane-5^6-carboxamide] | 0.205 | 0.604 | 87.9 | 83.87
7 | CCN(C(=O)c1ccc2c(c1)N1C[C@H](C)CCCOc3c(cnn3C)-c3cc(cc(C)n3)C(=O)/N=C/1N2)C1CCN(CCc2cc(F)c([C@H]3CCC(=O)NC3=O)c(F)c2)CC1 [Example 241, (R,E)-N-(1-(4-((R)-2,6-dioxopiperidin-3-yl)-3,5-difluorophenethyl)piperidin-4-yl)-N-ethyl-1^1,2^6,7-trimethyl-3-oxo-5^2,5^3-dihydro-1^1H,5^1H-li-oxa-4-aza-5(2,1)-benzo[d]imidazola-2(2,4)-pyridina-1(4,5)-pyrazolacycloundecaphane-5^4-carboxamide] | 0.328 | 0.403 | 87.7 | 76.68
8 | Cc1cc2cc(n1)-c1cnn(C)c1OCCC[C@@H](C)CN1/C(=N/C2=O)Nc2ccc(C(=O)NC3CCN(CCc4cc(F)c([C@H]5CCC(=O)NC5=O)c(F)c4)CC3)cc21 [Example 242, (R,E)-N-(1-(4-((R)-2,6-dioxopiperidn-3-yl)-3,5-difluorophenethyl)piperidin-4-yl)-1^1,2^6,7-trimethyl-3-oxo-5^2,5′-dihydro-1^1H,5^1H-li-oxa-4-aza-5(2,1)-benzo[d]imidazola-2(2,4)-pyridina-1(4,5)-pyrazolacycloundecaphane-5^6-carboxamide] | 0.352 | 0.321 | 93.2 | 88.18
9 | CO[C@H]1CN(CCc2cc(F)c([C@H]3CCC(=O)NC3=O)c(F)c2)CC[C@H]1NC(=O)c1ccc2c(c1)N1C[C@H](C)CCCOc3c(cnn3C)-c3cc(cc(C)n3)C(=O)/N=C/1N2 [Example 244, (R,E)-N-((3S,4R)-1-(4-((R)-2,6-dioxopiperidin-3-yl)-3,5-difluorophenethyl)-3-methoxypiperidin-4-yl)-1^1,2^6,7-trimethyl-3-oxo-5^2,5^3-dihydro-1^1H,5^1H-li-oxa-4-aza-5(2,1)-benzo[d]imidazola-2(2,4)-pyridina-1(4,5)-pyrazolacycloundecaphane-5^6-carboxamide] | 0.548 | 0.167 | 95.3 | 78.89
10 | CO[C@@H]1CN(CCc2cc(F)c([C@H]3CCC(=O)NC3=O)c(F)c2)CC[C@@H]1NC(=O)c1ccc2c(c1)N1C[C@H](C)CCCOc3c(cnn3C)-c3cc(cc(C)n3)C(=O)/N=C/1N2 [Example 245, (R,E)-N-((3R,4S)-1-(4-((R)-2,6-dioxopiperidin-3-yl)-3,5-difluorophenethyl)-3-methoxypiperidin-4-yl)-1^1,2^5,7-trimethyl-3-oxo-5^2,5^3-dihydro-1^1H,5^1H-11-oxa-4-aza-5(2,1)-benzo[d]imidazola-2(2,4)-pyridina-1(4,5)-pyrazolacycloundecaphane-5^6-carboxamide] | 0.534 | 0.487 | 94 | 81.9
11 | Cc1cc2cc(n1)-c1cnn(C)c1OCCC[C@@H](C)CN1/C(=N/C2=O)Nc2ccc(C(=O)N[C@@H]3CCN(CCc4cc(F)c([C@H]5CCC(=O)NC5=O)c(F)c4)C[C@@H]3F)cc21 [Example 246, (R,E)-N-((3S,4R)-1-(4-((R)-2,6-dioxopiperidin-3-yl)-3,5-difluorophenethyl)-3-fluoropiperidin-4-yl)-1^1,2^6,7-trimethyl-3-oxo-5^2,5^3-dihydro-1^1H,5^1H-11-oxa-4-aza-5(2,1)-benzo[d]imidazola-2(2,4)-pyridina-1(4,5)-pyrazolacycloundecaphane-5^6-carboxamide] | 0.602 | 0.613 | 93.8 | 85.73
12 | Cc1cc2cc(n1)-c1cnn(C)c1OCCC[C@@H](C)CN1/C(=N/C2=O)Nc2ccc(C(=O)N(C)[C@H]3CCN(CCc4cc(F)c([C@H]5CCC(=O)NC5=O)c(F)c4)C[C@@H]3F)cc21 [Example 247, (R,E)-N-((3S,4S)-1-(4-((R)-2,6-dioxopiperidin-3-yl)-3,5-difluorophenethyl)-3-fluoropiperidin-4-yl)-N,1^1,2^6,7-tetramethyl-3-oxo-5^2,5^3-dihydro-1^1H,5^1H-11-oxa-4-aza-5(2,1)-benzo[d]imidazola-2(2,4)-pyridina-1(4,5)-pyrazolacycloundecaphane-5^6-carboxamide] | 0.611 | 0.6 | 92.5 | 87.12
13 | Cc1cc2cc(n1)-c1cnn(C)c1OCCC[C@@H](C)CN1/C(=N/C2=O)Nc2ccc(C(=O)N(C)[C@H]3CCN(CCc4cc(F)c([C@H]5CCC(=O)NC5=O)c(F)c4)CC3(F)F)cc21 [Example 251, (R,E)-N—((S)-1-(4-((R)-2,6-dioxopiperidin-3-yl)-3,5-difluorophenethyl)-3,3-difluoropiperidin-4-yl)-N,1^1,2^6,7-tetramethyl-3-oxo-5^2,5^3-dihydro-1^1H,5^1H-11-oxa-4-aza-5(2,1)-benzo[d]imidazola-2(2,4)-pyridina-1(4,5)-pyrazolacycloundecaphane-5^6-carboxamide] | 0.611 | 0.888 | 85.5 | 80.86
